Patent publication US20110045065A1, “SUBSTANCE HAVING ANTIOXIDANT, GEROPROTECTIVE AND ANTI-ISCHEMIC ACTIVITY AND METHOD FOR THE PREPARATION THEREOF” (priority 2005, published 2011)
Several values for one entry are separate records, joined by “and”; a condition that tells them apart may be missing. Identical values can stand only once. Entries after “also recorded” stand apart in the source; their conditions may differ.

Key:
traumatic hemophthalmia = assay: Experimental traumatic hemophthalmia: preclinical and ultrasonic examination; format: in vivo, chinchilla rabbits; settings: for Capability of ophthalmoscopy and eyeground: 3-point scale, 0 impossible, 3 details clearly visible; for Density of hemophthalmia: 100 SUD = ultrasonic sclera density; for Area of hemophthalmia / Volume of a hemophthalmia: parabulbar 0.5 ml of 1% solution daily
Procedure: Studies were carried out in 12 chinchilla rabbits having body weight 2.0-2.5 kg. A traumatic hemophthalmia was modeled by introduction of 0.5 to 0.7 ml of autoblood into a vitreous body through a puncture in a sclera on distance of 5 mm from a limbus, under a local anaesthesia. The basic group made with 6 rabbits (12 eyes), daily received a formulation prepared in accordance with the present invention parabulbarly (0.5 ml of 1% solution). A control group presented by 6 animals (12 eyes), daily received parabulbar emoxipin (2-ethyl-6-methyl-3-hydroxypiridin) in the same dosage. Treatment was carried out within 14 days after a trauma.
Besides the traditional ophthalmologic examination such as biomicroscopy, direct and indirect ophthalmoscopy, all the animals passed through ultrasonic scanning of an eye by means of the device “Voluson 730” (“Kretz”). The studies were carried out on the 1, 3, 7, 10 and 14th day of the experiment. For the estimation of efficiency of the treatment following tests were used: density, area, volume of a hemophthalmia and opportunity (possibility) of ophthalmoscopy of an eye ground. Density of a hemophthalmia was estimated in standard (conventional) units of density (SUD), 100 SUD were accepted for the maximal value, corresponding to the ultrasonic sclera density. Depending on the degree of acoustic density of a hemophthalmia, a high (100-50 SUD), medium (50-25 SUD) and low (less than 25 SUD) densities were distinguished. To determine the hemophthalmia the area measurement in sm^2 was used. The volume of the intraocular hemorrhage was studied with the help of 3D modelling in the B-regimen of a grey scale and measurement in sm^3.
At the ultrasonic examination of the intact rabbit's eyes, the average volume of vitreous body (1.0±0.9 sm^3) and the average area of a vitreous body (1.04±0.8 sm^2) were fixed. Proceeding from the obtained data, the total hemophthalmia (from 100 up to 50% of the vitreous body volume) was equated to the volume of 0.5-1.0 sm^3 and of 0.5-1.0 sm^2, a wide-spread hemophthalmia (50-25% of volume of a vitreous) corresponded to the area of 0.5-0.25 sm^3, both 0.5-0.25 sm^2, and the partial hemophthalmia occupied up to 0.25 sm^3 and 0.25 sm^2 (up to 25% of the vitreous volume).
Capability of the eyeground ophthalmoscopy was estimated by a 3-mark(point) scale depending on the image sharpness (0—ophthalmoscopy is impossible (not capable), 3—details of an eyeground are clearly visible).

[1] = test system: acute myocardial ischemia (occlusion of the coronary artery of rats); assay: Sizes of necrosis and ischemia zones in acute myocardial ischemia; format: in vivo, rat
Procedure: The experiments are carried out with non-pedigree male rats having a weight of 250-300 g, which have been anesthetized with sodium ethaminale (40 mg/kg intraperitoneally). A myocardial infarction was modeled for animals, transferred to controlled breathing, by ligation of a descending branch of the left-hand coronary artery to a level of the lower edge of an auricula atrii.
The sizes of necrosis zones and ischemia zones have been determined within 4 hours after occlusion of the coronary artery by a differential indicator method, the principle of which is based on separate quantitative determination of Evans' blue (indicator of an ischemia zone) and red phormazane (indicator of an necrosis zone).

[2] = test system: external segments of photoreceptor cells; assay: Ascorbate-induced peroxidation of external segments of photoreceptor cells; format: biochemical, pig
From the text: The external segments of photoreceptor cells are obtained from pig retinas according to standard procedure, using methods of differential centrifuging in a saccharose density gradient. […] Subsequently, the process was stopped by 15% trichloroacetic acid, and the concentration of TBK-active products has been determined. Samples being free of compound Ic were used as a control.
In these experiments a comparison of the speed of ascorbate-induced peroxidation of external segments of photoreceptor cells of pig eyes has been carried out, said comparison being determined with respect to the accumulation of TBK-active products in the presence of different compound I salts.

tissue of the eye = assay: Local irritant action to tissue of the eye; format: in vivo, rabbit; settings: six rabbits, single instillation of 1% solution, within 1 min after dropping
Procedure: The experimental measurements are carried out on six rabbits. All animals have been subjected to single instillation of 1% solution of compound I into the right eye and 1% solution of emoxypine into the left eye. The front section of the eye is controlled by a focal illumination method with a 20 D lens within 1 min. after dropping.

[3] = Antiradical activity by chemiluminescence (rate constant k7); format: physicochemical
Procedure: The efficiency of 3-hydroxypyridine derivatives as inhibitors of free radical reactions was determined by hemiluminescent method by means of measurement of speed constants of their reaction with ethyl-benzene k7 peroxide radicals.
The measurements of intensity of chemiluminescence (HL) have been carried out with an apparatus CNK-7, designed and made by IHF RAN USSR. A photomultiplier FAU-38 is used as an optical receiver. The fixed concentration of radicals during oxidation of […] (cumole) is controlled by an initiator being azo-bis-isobutyronitrile.
In order to increase HL emission the activator chelate Eu (europium tristenoyl triphtoroacetonate with 1,10-phenatroline) has been used that has allowed to conduct measurements at low speed values of radical initiation (W1=10^−8-10^−9 mol/I.s.) and, therefore, at small amounts of added sample. A weighed amount of samples studied was diluted in an suitable solvent (chlorobenzene or acetonitrile) and a small amount of the prepared solution (0.1-0.25 ml) was added to the reaction mixture (5-6 ml), arranged in a temperature-controlled reaction vessel of the HL-device. The change of emission intensity was recorded.

[4] = rats, 16 mg/kg, within 4 hours after occlusion of the coronary artery

Substance: 2,4,6-trimethyl-3-oxypyridine succinate [Compound Ic]
- Capability of ophthalmoscopy and eyeground (traumatic hemophthalmia; 1st day): 1.5 points
- Density of hemophthalmia (traumatic hemophthalmia; 1st day): 84 ± 2.4 SUD
- Area of hemophthalmia (traumatic hemophthalmia; 1st day): 0.49 ± 0.7 sm^2
- Volume of a hemophthalmia (traumatic hemophthalmia; 1st day): 0.53 ± 0.4 sm^3
- Capability of ophthalmoscopy and eyeground (traumatic hemophthalmia; 3rd day): 0-0.5 points
- Density of hemophthalmia (traumatic hemophthalmia; 3rd day): 72 ± 3.1 SUD
- Area of hemophthalmia (traumatic hemophthalmia; 3rd day): 0.74 ± 0.9 sm^2
- Volume of a hemophthalmia (traumatic hemophthalmia; 3rd day): 0.78 ± 0.2 sm^3
- Capability of ophthalmoscopy and eyeground (traumatic hemophthalmia; 7th day): 1.5 points
- Density of hemophthalmia (traumatic hemophthalmia; 7th day): 49±1.4 SUD
- Area of hemophthalmia (traumatic hemophthalmia; 7th day): 0.47 ± 0.4 sm^2
- Volume of a hemophthalmia (traumatic hemophthalmia; 7th day): 0.51 ± 0.6 sm^3
- Capability of ophthalmoscopy and eyeground (traumatic hemophthalmia; 10th day): 2.2 points
- Density of hemophthalmia (traumatic hemophthalmia; 10th day): 23±1.1 SUD
- Hemophthalmia completely resolved (traumatic hemophthalmia; 10th day, group of 6 rabbits): two animals
- Area of hemophthalmia (traumatic hemophthalmia; 10th day): 0.24±0.1 sm^2 and 0.2 ± 0.1 sm^2
- Volume of a hemophthalmia (traumatic hemophthalmia; 10th day): 0.2±0.1 sm^3 and 0.24 ± 0.1 sm^3
- Hemophthalmia completely resolved (traumatic hemophthalmia; 14th day): 50 % of animals
- Capability of ophthalmoscopy and eyeground (traumatic hemophthalmia; 14th day): 2.8 points
- Density of hemophthalmia (traumatic hemophthalmia; 14th day): 13±0.6 SUD
- Area of hemophthalmia (traumatic hemophthalmia; 14th day): 0.11 ± 0.7 sm^2
- Volume of a hemophthalmia (traumatic hemophthalmia; 14th day): 0.15 ± 0.2 sm^3
- Efficiency on resorption of traumatic hemophthalmia (traumatic hemophthalmia; conclusion in words): positive effect on the resorptive processes in a vitreous body; also recorded: much higher in comparison with emoxipin
- Ratio of necrosis zone to ischemia zone [1, 4]: 11 ± 3.3%
- Ratio of necrosis zone to total mass of the myocardium [1, 4]: 4 ± 2.3%
- Anti-ischemic activity in comparison ([1]; result in words): considerably higher anti-ischemic activity than the other 3-oxypyridines
- Speed of accumulation of TBK-active products for 30 min of reacting ([2]; compound 43 mM): 0.05 nmol/mg
- Inhibition ([2]; compound 43 mM, 30 min of reacting): 93.5%
- Inhibition ([2]; response time 15 min, 17 mM compound, 0.5 mM ascorbic acid): 49.6%
- Inhibition ([2]; response time 30 min, 17 mM compound, 0.5 mM ascorbic acid): 32.3%
- Local irritant reaction of conjunctiva, eyeglobe and cornea (tissue of the eye): do not show local irritating action on tissue of the eye
- Local irritant reaction of conjunctiva, eyeglobe and cornea (tissue of the eye; listed as I): not detected
- Antiradical activity in comparison with mexydole ([3]; result in words): two times higher antiradical activity
- k7 × 10^−4 ([3]; speed constant of reaction with ethyl-benzene peroxide radicals): 9.5 l/mol × sec
